For 16 molecules, inhibition, viability and Activity results are on record in ChEMBL document CHEMBL4351030, “Synthesis and biological evaluation of 3-carbamate smilagenin derivatives as potential neuroprotective agents” (2019).

For one assay, the system named is RAW264.7. Put plainly: Neuroprotective activity against LPS-induced oxidative stress in mouse RAW264.7 cells assessed as reduction in NO production at 10 uM preincubated for 30 mins followed by LPS stimulation for 20 hrs by Griess reagent based microplate reader assay relative to control. The class given is functional.
Assay [1] has as its system SH-SY5Y. Put plainly: Neuroprotective activity against H2O2-induced oxidative stress in human SH-SY5Y cells assessed as cell viability at 10 uM preincubated for 2 hrs followed by H2O2 stimulation for 30 mins followed by further incubation for 24 hrs by MTT assay relative to control. The class given is functional. As to conditions: for viability at 10 µM: read-out: Activity.

Assay [2] has as its system SH-SY5Y. Briefly: Neuroprotective activity against oxygen-glucose deprivation-induced cell damage in human SH-SY5Y cells assessed as increase in cell viability measured after 5.5 hrs of post OGD challenge by MTT assay. It is filed as functional, cell-based. Background: Tetrazolium assays rely on reduction of a dye to a coloured formazan, in cell work by metabolically active cells.

Assay [3] deals with SH-SY5Y. Put plainly: Neuroprotective activity against H2O2-induced oxidative stress in human SH-SY5Y cells assessed as cell viability at 1 mM preincubated for 2 hrs followed by H2O2 stimulation for 30 mins followed by further incubation for 24 hrs by MTT assay relative to control. The class given is functional. As to conditions: read-out: Activity.

The structures appear in SMILES notation. The source made the active and inactive calls. The calls are words filed in the database; no cut-off is given here.

The term inhibition denotes the percentage by which the read-out fell short of the control. Regarding `C[C@@H]1CC[C@@]2(OC1)O[C@H]1C[C@H]3[C@@H]4CC[C@@H]5C[C@@H](OC(=O)N6CCN(Cc7ccccc7O)CC6)CC[C@]5(C)[C@H]4CC[C@]3(C)[C@H]1[C@@H]2C`, the inhibition at 10 µM in the assay on RAW264.7 stood at 7.02%. In the assay on SH-SY5Y [1], the viability at 10 µM was found to be 38.4%.

In the case of `CC(C)CNC(=O)O[C@H]1CC[C@@]2(C)[C@H](CC[C@@H]3[C@@H]2CC[C@]2(C)[C@@H]4[C@H](C[C@@H]32)O[C@]2(CC[C@@H](C)CO2)[C@H]4C)C1`, the viability at 10 µM in the assay on SH-SY5Y [1] turned out to be 9.2%.

As to `C[C@@H]1CC[C@@]2(OC1)O[C@H]1C[C@H]3[C@@H]4CC[C@@H]5C[C@@H](OC(=O)N6CCN(Cc7ccc(C#N)cc7)CC6)CC[C@]5(C)[C@H]4CC[C@]3(C)[C@H]1[C@@H]2C`, in the assay with RAW264.7, the inhibition at 10 µM came to 23.5%. In the assay on SH-SY5Y [2], the result was Active. In addition, the viability at 10 µM in the assay with SH-SY5Y [1] came to 40.5%. For `COc1ccc(CN2CCN(C(=O)O[C@H]3CC[C@@]4(C)[C@H](CC[C@@H]5[C@@H]4CC[C@]4(C)[C@@H]6[C@H](C[C@@H]54)O[C@]4(CC[C@@H](C)CO4)[C@H]6C)C3)CC2)cc1`, the viability at 10 µM with SH-SY5Y [1] worked out at 4.8%. `C[C@@H]1CC[C@@]2(OC1)O[C@H]1C[C@H]3[C@@H]4CC[C@@H]5C[C@@H](OC(=O)N6CCN(Cc7ccc(Cl)cc7)CC6)CC[C@]5(C)[C@H]4CC[C@]3(C)[C@H]1[C@@H]2C`: the inhibition at 10 µM in the assay with RAW264.7 is 15.2%. The result in the assay with SH-SY5Y [2] was Active. Also, the viability at 10 µM in the assay with SH-SY5Y [1] was 34.8%. Turning to `C[C@@H]1CC[C@@]2(OC1)O[C@H]1C[C@H]3[C@@H]4CC[C@@H]5C[C@@H](OC(=O)N6CCN(Cc7ccccc7)CC6)CC[C@]5(C)[C@H]4CC[C@]3(C)[C@H]1[C@@H]2C`, in the assay on RAW264.7, the inhibition at 10 µM is 18.3%. Also, in the assay on SH-SY5Y [2], the outcome was Active. Besides, the viability at 10 µM in the assay with SH-SY5Y [1] amounted to 36.9%. In the case of `C[C@@H]1CC[C@@]2(OC1)O[C@H]1C[C@H]3[C@@H]4CC[C@@H]5C[C@@H](OC(=O)NCc6ccccc6)CC[C@]5(C)[C@H]4CC[C@]3(C)[C@H]1[C@@H]2C`, the viability at 10 µM in the assay on SH-SY5Y [1] was determined as 5.8%. On to `C[C@@H]1CC[C@@]2(OC1)O[C@H]1C[C@H]3[C@@H]4CC[C@@H]5C[C@@H](OC(=O)NCc6ccc(Cl)cc6)CC[C@]5(C)[C@H]4CC[C@]3(C)[C@H]1[C@@H]2C`, for which the inhibition at 10 µM in the assay on RAW264.7 was found to be 17.6%. The outcome with SH-SY5Y [2] was Active. The viability at 10 µM in the assay on SH-SY5Y [1] amounted to 45.5%. As to `C[C@@H]1CC[C@@]2(OC1)O[C@H]1C[C@H]3[C@@H]4CC[C@@H]5C[C@@H](O)CC[C@]5(C)[C@H]4CC[C@]3(C)[C@H]1[C@@H]2C`, the viability at 10 µM with SH-SY5Y [1] is 3.5%. Consider `C[C@@H]1CC[C@@]2(OC1)O[C@H]1C[C@H]3[C@@H]4CC[C@@H]5C[C@@H](OC(=O)N6CCN(C)CC6)CC[C@]5(C)[C@H]4CC[C@]3(C)[C@H]1[C@@H]2C`, for which the result in the assay on SH-SY5Y [1] was inactive. Turning to `COc1ccc(CNC(=O)O[C@H]2CC[C@@]3(C)[C@H](CC[C@@H]4[C@@H]3CC[C@]3(C)[C@@H]5[C@H](C[C@@H]43)O[C@]3(CC[C@@H](C)CO3)[C@H]5C)C2)cc1`, the inhibition at 10 µM in the assay with RAW264.7 was 9.2%. Moreover, the viability at 10 µM with SH-SY5Y [1] was 17.9%.

For `C[C@@H]1CC[C@@]2(OC1)O[C@H]1C[C@H]3[C@@H]4CC[C@@H]5C[C@@H](OC(=O)N6CCN(CCO)CC6)CC[C@]5(C)[C@H]4CC[C@]3(C)[C@H]1[C@@H]2C`, the result in the assay with SH-SY5Y [1] was inactive.

Consider `COc1cc(CN2CCN(C(=O)O[C@H]3CC[C@@]4(C)[C@H](CC[C@@H]5[C@@H]4CC[C@]4(C)[C@@H]6[C@H](C[C@@H]54)O[C@]4(CC[C@@H](C)CO4)[C@H]6C)C3)CC2)ccc1O`, for which the viability at 10 µM in the assay on SH-SY5Y [1] was determined as 10.3%. Regarding `CC(=O)N[C@@H](CS)C(=O)O` [ACETYLCYSTEINE], the viability at 1000 µM in the assay on SH-SY5Y [3] was 37.1%. With `Cc1ccc(CNC(=O)O[C@H]2CC[C@@]3(C)[C@H](CC[C@@H]4[C@@H]3CC[C@]3(C)[C@@H]5[C@H](C[C@@H]43)O[C@]3(CC[C@@H](C)CO3)[C@H]5C)C2)cc1`, in the assay on RAW264.7, the inhibition at 10 µM was found to be 6.8%. Moreover, the viability at 10 µM in the assay on SH-SY5Y [1] came to 29.2%. Turning to `C[C@@H]1CC[C@@]2(OC1)O[C@H]1C[C@H]3[C@@H]4CC[C@@H]5C[C@@H](OC(=O)N(C)C)CC[C@]5(C)[C@H]4CC[C@]3(C)[C@H]1[C@@H]2C`, the viability at 10 µM in the assay with SH-SY5Y [1] came to 6.3%.
